How the values were obtained:
Type in all cases: in vivo
[1] = test system: Thrips tabaci; assay: Thrips tabaci (onion thrips) feeding/contact activity; conditions: foliar, 144 h, spray on sunflower leaf discs, mixed ages, 6 days after infestation
Experimental: Thrips tabaci (Onion Thrips) Feeding/Contact Activity
(§1) Sunflower leaf discs were placed on agar in 24-well microtiter plates and sprayed with aqueous test solutions prepared from 10′000 ppm DMSO stock solutions. After drying the leaf discs were infested with a thrips population of mixed ages. The samples were assessed for mortality 6 days after infestation.

[2] = test system: Diabrotica balteata; assay: Diabrotica balteata (corn root worm), sprayed maize sprouts, L2 larvae; conditions: 96 h, spray on maize sprouts, 4 days after infestation, read-out: effect in at least one of the two categories (mortality or growth inhibition)
Experimental: Diabrotica balteata (Corn Root Worm)
Maize sprouts placed onto an agar layer in 24-well microtiter plates were treated with aqueous test solutions prepared from 10′000 ppm DMSO stock solutions by spraying. After drying, the plates were infested with L2 larvae (6 to 10 per well). The samples were assessed for mortality and growth inhibition in comparison to untreated samples 4 days after infestation. The following compounds gave an effect of at least 80% in at least one of the two categories (mortality or growth inhibition) at an application rate of 200 ppm: A1

[3] = test system: Spodoptera littoralis; assay: Spodoptera littoralis (Egyptian cotton leaf worm), sprayed cotton leaf discs, L1 larvae; conditions: foliar, 72 h, spray on cotton leaf discs, 3 days after infestation, read-out: control (mortality, anti-feeding effect or growth inhibition)
Experimental: Spodoptera littoralis (Egyptian Cotton Leaf Worm)
Cotton leaf discs were placed onto agar in 24-well microtiter plates and sprayed with aqueous test solutions prepared from 10′000 ppm DMSO stock solutions. After drying the leaf discs were infested with five L1 larvae. The samples were assessed for mortality, anti-feeding effect, and growth inhibition in comparison to untreated samples 3 days after infestation. Control of Spodoptera littoralis by a test sample is given when at least one of the categories mortality, anti-feedant effect, and growth inhibition is higher than the untreated sample.

[4] = test system: Euschistus heros; assay: Euschistus heros (neotropical brown stink bug), sprayed soybean leaves, N2 nymphs; conditions: 120 h, spray on soybean leaves, 5 days after infestation, read-out: effect in at least one of the two categories (mortality or growth inhibition)
Experimental: Euschistus heros (Neotropical Brown Stink Bug)
Soybean leaves on agar in 24-well microtiter plates were sprayed with aqueous test solutions prepared from 10′000 ppm DMSO stock solutions. After drying the leaves were infested with N2 nymphs. The samples were assessed for mortality and growth inhibition in comparison to untreated samples 5 days after infestation.
The following compounds gave an effect of at least 80% in at least one of the two categories (mortality or growth inhibition) at an application rate of 200 ppm: A1, A2

[5] = test system: Tetranychus urticae; assay: Tetranychus urticae (two-spotted spider mite) feeding/contact activity; conditions: foliar, 192 h, spray on bean leaf discs, mixed population (mobile stages), 8 days after infestation
Experimental: Tetranychus urticae (Two-Spotted Spider Mite): Feeding/Contact Activity
as §1, with “Bean” for “Sunflower”, “discs” for “discs were placed”, “were” for “and”, “mite” for “thrips”, “on mixed population (mobile stages) 8” for “6”

[6] = test system: Plutella xylostella; assay: Plutella xylostella (diamond back moth), artificial diet, L2 larvae; conditions: 120 h, 5 days after infestation, read-out: effect in at least one of the two categories (mortality or growth inhibition)
Experimental: (§2) Plutella xylostella (Diamond Back Moth)
(§3) 24-well microtiter plates with artificial diet were treated with aqueous test solutions prepared from 10′000 ppm DMSO stock solutions by pipetting. After drying, the plates were infested with L2 larvae (10 to 15 per well). The samples were assessed for mortality and growth inhibition in comparison to untreated samples 5 days after infestation.
The following compounds gave an effect of at least 80% in at least one of the two categories (mortality or growth inhibition) at an application rate of 200 ppm: A1

[7] = test system: Plutella xylostella; assay: Plutella xylostella (diamond back moth), artificial diet, eggs; conditions: 192 h, 8 days after infestation, read-out: effect in at least one of the two categories (mortality or growth inhibition)
Experimental: as §2
as §3, with “drying, Plutella eggs were pipetted through a plastic stencil onto a gel blotting paper and” for “drying,”, “plate was closed” for “plates were infested”, “it.” for “L2 larvae (10 to 15 per well).”, “8” for “5”
The following compounds gave an effect of at least 80% in at least one of the two categories (mortality or growth inhibition) at an application rate of 200 ppm: A2

COC(=O)N(C(=O)c1ccc(C2=NO[C@@](c3cc(Cl)c(F)c(Cl)c3)(C(F)(F)F)C2)cc1C)C1CN(S(=O)(=O)C(F)F)C1 [A1, methyl N-[4-[(5S)-5-(3,5-dichloro-4-fluoro-phenyl)-5-(trifluoromethyl)-4H-isoxazol-3-yl]-2-methyl-benzoyl]-N-[1-(difluoromethylsulfonyl)azetidin-3-yl]carbamate]
≥ 80%: mortality at 200 ppm [1] | percent effect (mortality or growth inhibition) at 200 ppm [2] | percent control (mortality, anti-feedant effect or growth inhibition) at 200 ppm [3] | percent effect (mortality or growth inhibition) at 200 ppm [4] | mortality at 200 ppm [5] | percent effect (mortality or growth inhibition) at 200 ppm [6]

CCOC(=O)N(C(=O)c1ccc(C2=NO[C@@](c3cc(Cl)c(F)c(Cl)c3)(C(F)(F)F)C2)cc1C)C1CN(S(=O)(=O)C(F)F)C1 [A2, ethyl N-[4-[(5S)-5-(3,5-dichloro-4-fluoro-phenyl)-5-(trifluoromethyl)-4H-isoxazol-3-yl]-2-methyl-benzoyl]-N-[1-(difluoromethylsulfonyl)azetidin-3-yl]carbamate]
≥ 80%: percent control (mortality, anti-feedant effect or growth inhibition) at 200 ppm [3] | percent effect (mortality or growth inhibition) at 200 ppm [7] | percent effect (mortality or growth inhibition) at 200 ppm [4]
